Results as given in patent publication US9896668B2, “Substrate-mimetic AKT inhibitor” (University of South Florida, priority 2006, dated 2018).
Square brackets hold non-standard residues; d marks the D form. Peptide text beside a SMILES is read from it. * marks the point of attachment. 4Abz = Nc1ccc(C(=O)O)cc1; NHBn = c1ccc(CN*)cc1

Biological target: Akt1 (Homo sapiens, UniProt P31749)
Experiment: in vitro inhibition of Akt, fluorescence polarization assay (IMAP Akt Assay Kit)
Assay type: biochemical
Protocol: FIG. 9 is a table of investigations into the hydrophobic interactions between the GSK-3 residues central hydrophobic contacts and Akt. The values reported are an average of three independent binding curves using an IMAP™ Akt Assay Kit (Molecular Devices). Reactions were conducted in wells with 20.0 μL of 10 mM Tris-HCl (pH 7.2), 10 mM MgCl2, 0.1% BSA, 0.05% NaN3, 1 mM DTT, 100 nM 5FAM-[…]-COOH, 5 μM ATP, Akt1, and inhibitor. Reaction mixtures were incubated for 1 h at room temperature and then quenched with 60 μL of the IMAP-binding solution. The reactions were equilibrated for 1 h at room temperature then data points were collected and analyzed.
FIG. 14 is a table showing the optimization of C-terminal and central substituents for non-peptide inhibitors. ^a Reported values are an average of three independent-binding curves utilizing an IMAP® Akt Assay Kit (Molecular Devices). […] The reactions were equilibrated for 1 h at room temperature then data points were collected and analyzed. […]
Peptidomimetic inhibitors were generated directly from the minimal substrate sequence by systematic replacement of the non-critical amino acids and tested for in vitro inhibition of Akt using a fluorescence polarization assay system, shown in FIG. 3. […]

Sequence of Akt1 (P31749 whole entry): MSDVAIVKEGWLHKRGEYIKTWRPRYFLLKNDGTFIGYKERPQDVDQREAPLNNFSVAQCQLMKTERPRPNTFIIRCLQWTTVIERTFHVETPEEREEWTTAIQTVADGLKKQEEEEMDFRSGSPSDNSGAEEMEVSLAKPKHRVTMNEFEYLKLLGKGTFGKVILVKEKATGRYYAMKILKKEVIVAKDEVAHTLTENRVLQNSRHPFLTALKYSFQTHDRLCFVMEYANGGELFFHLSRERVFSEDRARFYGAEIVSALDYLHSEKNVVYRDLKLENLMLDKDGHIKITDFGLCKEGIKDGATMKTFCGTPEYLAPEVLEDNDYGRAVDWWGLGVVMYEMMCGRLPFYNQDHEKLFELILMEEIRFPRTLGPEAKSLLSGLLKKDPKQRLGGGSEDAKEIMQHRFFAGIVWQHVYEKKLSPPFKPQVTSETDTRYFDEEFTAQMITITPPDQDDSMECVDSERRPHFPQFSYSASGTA

In the case of CC(=O)NCC(=O)N[C@@H](CCCNC(=N)N)C(=O)N1CCC[C@H]1C(=O)N[C@@H](CCCNC(=N)N)C(=O)Nc1ccc(C(=O)N[C@H](C(=O)N[C@@H](Cc2ccccc2)C(=O)NCc2ccccc2)C(C)C)cc1 [Inhibitor 10] (Ac-GRPR[4Abz]VF-NHBn), the IC50 (IMAP Akt Assay Kit, 5 μM ATP, 100 nM 5FAM-GRPRTSSFAEG-COOH, 1 h room temperature) is reported as 28 µM and the “fold increase in potency/activity versus parent inhibitor” value (in vitro Akt inhibition) is reported as 10 fold.
